Measurements as given in BindingDB's records for doi:10.1021/jm970559i (University of Michigan, 1998).

Experiments:
[1] = Antiviral activity against Human Immunodeficiency Virus by Reverse transcriptase assay CEM-SS cells
[2] = Antiviral activity against Human Immunodeficiency Virus by Reverse transcriptase assay in CEM-SS cells
[3] = as above; remark: listed apart in the source
[4] = Antiviral activity against Human Immunodeficiency Virus by Reverse transcriptase (RT) assay in CEM-SS cells.
[5] = Antiviral activity against Human Immunodeficiency Virus by Reverse transcriptase assay in CEM-SS

IC50 [2] | Structure (SMILES) | further results
 | COc1ccc(Cn2c(Br)nc3cc(Cl)c(Cl)cc32)cc1 [2-Bromo-5,6-dichloro-1-(4-methoxy-benzyl)-1H-benzoimidazole] | IC50 [1]: > 100 µM
> 100 µM | Clc1ccc(Cn2c(Br)nc3cc(Cl)c(Cl)cc32)cc1Cl [2-Bromo-5,6-dichloro-1-(3,4-dichloro-benzyl)-1H-benzoimidazole] | 
 | O=[N+]([O-])c1ccc(Cn2c(Cl)nc3cc(Cl)c(Cl)cc32)cc1 [2,5,6-Trichloro-1-(4-nitro-benzyl)-1H-benzoimidazole] | IC50 [3]: > 100 µM
0.0031 µM | Cc1cn([C@H]2C[C@H](N=[N+]=[N-])[C@@H](CO)O2)c(=O)[nH]c1=O [1-((2R,4S,5S)-4-Azido-5-hydroxymethyl-tetrahydro-furan-2-yl)-5-methyl-1H-pyrimidine-2,4-dione] | 
> 100 µM | FC(F)(F)c1cc(Cn2c(Br)nc3cc(Cl)c(Cl)cc32)cc(C(F)(F)F)c1 [1-(3,5-Bis-trifluoromethyl-benzyl)-2-bromo-5,6-dichloro-1H-benzoimidazole] | 
66 µM | Cc1cccc(Cn2c(Br)nc3cc(Cl)c(Cl)cc32)c1 [2-Bromo-5,6-dichloro-1-(3-methyl-benzyl)-1H-benzoimidazole] | 
 | O=[N+]([O-])c1cccc(Cn2c(Br)nc3cc(Cl)c(Cl)cc32)c1 [2-Bromo-5,6-dichloro-1-(3-nitro-benzyl)-1H-benzoimidazole] | IC50 [4]: > 32 µM
 | Cc1ccc(Cn2c(Cl)nc3cc(Cl)c(Cl)cc32)cc1 [2,5,6-Trichloro-1-(4-methyl-benzyl)-1H-benzoimidazole] | IC50 [5]: > 100 µM
